pIC50: −log10 of the molar value.
biological target: Amine oxidase [flavin-containing] A (Rattus norvegicus) (UniProt P21396); assay: Inhibition of MAO-A activity
Sequence (P21396 whole entry, looked up): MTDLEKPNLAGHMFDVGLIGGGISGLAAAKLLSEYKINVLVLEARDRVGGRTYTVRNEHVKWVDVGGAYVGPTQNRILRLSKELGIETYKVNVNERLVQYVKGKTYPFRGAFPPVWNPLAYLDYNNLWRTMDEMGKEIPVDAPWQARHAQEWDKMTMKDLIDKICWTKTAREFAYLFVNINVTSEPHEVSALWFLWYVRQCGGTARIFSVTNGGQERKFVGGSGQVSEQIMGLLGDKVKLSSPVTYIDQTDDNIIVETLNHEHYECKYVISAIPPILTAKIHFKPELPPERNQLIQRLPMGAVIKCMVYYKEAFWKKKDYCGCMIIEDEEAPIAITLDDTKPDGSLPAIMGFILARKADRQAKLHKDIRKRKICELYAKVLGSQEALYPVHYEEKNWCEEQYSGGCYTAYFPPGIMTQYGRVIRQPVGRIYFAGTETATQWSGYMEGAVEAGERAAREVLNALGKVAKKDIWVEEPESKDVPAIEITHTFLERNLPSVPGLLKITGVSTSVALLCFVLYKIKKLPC

Compound | pIC50
COc1cc(OC2CCCCC2=O)c2c(C)cc(=O)oc2c1 (stereo not given) | < 3.70
Cc1coc2cc3oc(=O)c(NC(=O)CN)cc3cc12 | 4.91
Cc1cc(=O)oc2cc(OC3CCCCC3=O)ccc12 (stereo not given) | 4.37
CCN(CC)CCCOc1c2occc2cc2ccc(=O)oc12 | < 3.70
Cc1cc(=O)oc2cc3oc4c(c3cc12)CCCC4 | 4.19
COc1cc(OC2CCCCC2=O)cc2oc(=O)cc(C)c12 (stereo not given) | 4.67
COc1c2oc(=O)c(N)cc2cc2c(C)coc12 | 4.66
COc1c(O)ccc2cc(N)c(=O)oc12 | < 3.70
COc1c2occc2cc2ccc(=O)oc12 [METHOXSALEN] | 4.07

Molecules with a higher pIC50, results first:

pIC50 | Compound
4.95 | COc1c(OC2CCCCC2=O)ccc2c(C)cc(=O)oc12 (stereo not given)
5.19 | COc1c(OCC(C)=O)ccc2cc(NC(C)=O)c(=O)oc12
5.14 | Cc1cc(=O)oc2cc3oc4ccccc4c3cc12
7.40 | Cc1cc(=O)oc2cc(OC3CCCC3=O)ccc12 (stereo not given)
5.60 | NCCCOc1c2occc2cc2ccc(=O)oc12
4.92 | Cc1cc(=O)oc2cc3oc4c(c3cc12)CCC4
